US20040191287A1, “Fumigation process for stored food grains” (priority 2003, published 2004)
Where two headings read alike, the source gives them in different places.

Assays:
[1] = tested on: R. dominica mixed-age cultures; test: Mixed-age cultures exposed to allyl acetate in desiccators (Example 3); type: in vivo; conditions: Rhyzopertha dominica, read-out: Mortality (%) (Mean ± SD); for mortality at 25 µg/mL: 25 mg/liter; for mortality at 50 µg/mL: 50 mg/liter; for mortality at 100 µg/mL: 100 mg/liter; for mortality at 150 µg/mL: 150 mg/liter
Method: (§1) The grain/ flour containing mixed- age culture of the insect was weighted into 15 cm diameter paper plates in 50 gm aliquots and kept in 0.85 litre desiccators. A 9 cm size Whatman No.1 filter circle was placed in each desiccator to act as evaporating surface for allyl acetate when injected. The insects were exposed to 4 doses of allyl acetate i.e., 25, 50, 100 and 150 mg/liter. Allyl acetate was drawn from the bottle using 100 and 250 micro liter liquid syringes and injected into the desiccators, so that the liquid falls on the filter circle inside the desiccator. There were three replicates each for each dose and for each exposure period. […] Insects emerged from wheat (S. oryzae and R. dominica) or survived in wheat flour (T. castaneum) samples were checked at weekly intervals for 8 weeks. Similarly, counts were made in untreated control batches. Mortality in treated batches was determined by taking into account of survival/emergence in controls as 100%. […] For example, allyl acetate at 25 mg/litre with 48-hour exposure caused 99.8% kill in R. dominica whereas, 85.1 and 86.5% mortality was recorded, respectively, in S. oryzae and T. castaneum.

[2] = tested on: S. oryzae mixed-age cultures; test: as above; type: in vivo; conditions: Sitophilus oryzae, read-out: Mortality (%) (Mean ± SD); for mortality at 25 µg/mL: 25 mg/liter; for mortality at 50 µg/mL: 50 mg/liter; for mortality at 100 µg/mL: 100 mg/liter; for mortality at 150 µg/mL: 150 mg/liter
Method: as §1

[3] = tested on: T. castaneum mixed-age cultures; test: as above; type: in vivo; conditions: Tribolium castaneum, read-out: Mortality (%) (Mean ± SD); for mortality at 25 µg/mL: 25 mg/liter; for mortality at 50 µg/mL: 50 mg/liter; for mortality at 100 µg/mL: 100 mg/liter; for mortality at 150 µg/mL: 150 mg/liter
Method: as §1

[4] = tested on: S. oryzae mixed-age cultures; test: Fumigation in 125 litre plastic drums with 100 kg wheat, with/without perforated tubing (Example 6); type: in vivo, Sitophilus oryzae; conditions: for Insect Survivors / mortality at 200 µg/mL: S. oryzae, 200 mg/liter, 72 hours, 26 ± 2° C., 125 liter drum, 100 kg wheat; for mortality at 200 µg/mL: 72 h, read-out: % mortality based on survivors in untreated controls
Method: In another set of experiments, fumigations were carried out in the plastic drums with 100 kg […] acetate (27 ml of liquid) was dispensed at one location, that is, on the top layer of the grain. In both sets of experiments, there were 3 replicates for control and fumigated batches.
(§2) Insect mortality in fumigated batches was determined by taking into consideration of survivors in respective controls as 100%.

[5] = tested on: T. castaneum mixed-age cultures; test: as above; type: in vivo, Tribolium castaneum; conditions: without perforated tubing, 200 mg/liter, 26 ± 2° C., 125 liter drum; for mortality at 200 µg/mL: Tribolium castaneum, 72 h, read-out: % mortality based on survivors in untreated controls; for Insect Survivors: 72 hours
Method: In another set of experiments, fumigations were carried out in the plastic drums with 100 kg of wheat under similar conditions mentioned above except that there was no perforated tubing inserted into the grain and the total dose of allyl acetate (27 ml of liquid) was dispensed at one location, that is, on the top layer of the grain. In both sets of experiments, there were 3 replicates for control and fumigated batches.
as §2

[6] = tested on: T. castaneum mixed-age cultures; test: as above; type: in vivo, Tribolium castaneum; conditions: for Insect Survivors / mortality at 200 µg/mL: T. castaneum, with perforated tubing, 200 mg/liter, 72 hours, 26 ± 2° C., 125 liter drum, 100 kg wheat; for mortality at 200 µg/mL: 72 h, read-out: % mortality based on survivors in untreated controls
[7] = tested on: R. dominica mixed-age cultures; conditions: 72 hours at 26±2° C., 19.5 liter tin container with 12 kg wheat
Description: Fumigation experiments with allyl acetate have been conducted in 19.5 litre capacity tin containers with mixed- age cultures of R. dominica, S. oryzae and T. castaneum as the test insects.
Mixed-age cultures of S. oryzae and R. dominica were obtained by allowing 300 adults of the individual species to breed in about 1 kg of wheat in a 2-liter glass jar. To obtain mixed- age culture of T. castaneum about 300 adults were released into 1 kg of whole-wheat flour plus 5% dried yeast in a 2-litre glass jar. The insect culture jars were kept under the rearing temperature conditions i.e., 25±1° C. for S. oryzae and T. castaneum and 30±1° C. for R. dominica.
The infested grain/flour after an incubation period of 7 weeks was used for the experiment. The cultures were weighed into 50 gm aliquots in 21 cm×14 cm size cloth bags. One set of three test insect bags comprising R. dominica, S. oryzae and T. castaneum were kept at the bottom of the container before filling the grain.
Another set of three-test insect bags was kept on the top layer of grains. The grain-filled containers were, then, fumigated with allyl acetate for 72 hours at 26±2° C. There were 6 doses ranging from 100 to 800 mg/litre with 3 replicates/dosage along with untreated controls. Required quantity of allyl acetate was measured in 10 and 25 ml measuring cylinder and quickly poured on to 5 gm of absorbent cotton wool kept over the grain layer in the tin container.
Immediately after dosing, the container was closed with the lid tightly and sealed along the rim with adhesive tape. At the end of 72 hour, the lid was removed to aerate the commodity and the test insect bags were retrieved and the contents transferred to 300 ml capacity glass bottles.
Insect survivors in the samples were recorded at weekly intervals for 8 weeks. Mortality in fumigated batches was calculated based on emergence/survivors in controls.

[8] = tested on: R. dominica mixed-age cultures; conditions: 200 mg/liter, 26 ± 2° C., 19.5 liter tin container with 12 kg of wheat
Method: (§3) Further fumigation tests were carried out with allyl acetate at 200 mg/litre and with three different exposure periods of 24, 48 and 72 hours in 19.5 litre tin containers filled with 12 kg of wheat. Mixed- age cultures of R. dominica, S. oryzae and T. castaneum were used as the test insects.
(§4) Mixed-age cultures of S. oryzae and R. dominica were obtained by allowing 300 adults of the individual species to breed in about 1 kg of wheat in a 2-liter glass jar. To obtain mixed- age culture of T. castaneum about 300 adults were released into 1 kg of whole-wheat flour plus 5% dried yeast in a 2-litre glass jar. The insect culture jars were kept under the rearing temperature conditions i.e., 25±1° C. for S. oryzae and T. castaneum and 30±1° C. for R. dominica. The infested grain/flour after an incubation period of 7 weeks was used for the experiment. The cultures were weighed into 50 gm aliquots in 21 cm×14 cm size cloth bags. One set of three test insect bags comprising R. dominica, S. oryzae and T. castaneum were kept at the bottom of the container before filling the grain. […] Another set of three-test insect bags was kept on the top layer of grains. The grain-filled containers were, then, fumigated with allyl acetate for 24, 48 and 72 hours at 26±2° C. The commodity was treated with allyl acetate at the dosage of 200 mg/litre. Required quantity of allyl acetate was measured in 10 and 25 ml measuring cylinder and quickly poured on to 5 gm of absorbent cotton wool kept over the grain layer in the tin container. Immediately after dosing, the container was closed with the lid tightly and sealed along the rim with adhesive tape. At the end of the exposure period, the lid was removed to aerate the commodity and the test insect bags were retrieved and the contents transferred to 300 ml capacity glass bottles. Insect survivors in the samples were recorded at weekly intervals for 8 weeks. Mortality in fumigated batches was calculated based on emergence/survivors in controls.

[9] = tested on: T. castaneum mixed-age cultures; conditions: 200 mg/liter, 26 ± 2° C., 19.5 liter tin container with 12 kg of wheat
Method: as §3, §4

[10] = test insect bag at bottom layer
[11] = test insect bag at middle layer

## C=CCOC(C)=O [allyl acetate]
[1]; 24 hours exposure
  mortality at 25 µg/mL: 99.8 ± 0.3%
  mortality at 50 µg/mL: 100%
  mortality at 100 µg/mL: 100%
  mortality at 150 µg/mL: 100%
[1]; 48 hours exposure
  mortality at 25 µg/mL: 99.8%
  mortality at 50 µg/mL: 99.8 ± 0.4%
  mortality at 100 µg/mL: 100%
  mortality at 150 µg/mL: 100%
[1]; 120 hours exposure
  mortality at 25 µg/mL: 99.8 ± 0.5%
  mortality at 50 µg/mL: 100%
  mortality at 100 µg/mL: 100%
  mortality at 150 µg/mL: 100%
[2]; 24 hours exposure
  mortality at 25 µg/mL: 87.9 ± 4.1%
  mortality at 50 µg/mL: 98 ± 1.5%
  mortality at 100 µg/mL: 100%
  mortality at 150 µg/mL: 100%
[2]; 48 hours exposure
  mortality at 25 µg/mL: 85.1%
  mortality at 50 µg/mL: 98.9 ± 1.3%
  mortality at 100 µg/mL: 100%
  mortality at 150 µg/mL: 100%
[2]; 120 hours exposure
  mortality at 25 µg/mL: 98.8 ± 1.8%
  mortality at 50 µg/mL: 100%
  mortality at 100 µg/mL: 100%
  mortality at 150 µg/mL: 100%
[3]; 24 hours exposure
  mortality at 25 µg/mL: 0%
  mortality at 50 µg/mL: 82.6 ± 17.8%
  mortality at 100 µg/mL: 98.4 ± 3.3%
  mortality at 150 µg/mL: 99.2 ± 1.7%
[3]; 48 hours exposure
  mortality at 25 µg/mL: 86.5%
  mortality at 50 µg/mL: 100%
  mortality at 100 µg/mL: 100%
  mortality at 150 µg/mL: 100%
[3]; 120 hours exposure
  mortality at 25 µg/mL: 51.4 ± 11.6%
  mortality at 50 µg/mL: 73.4 ± 17.7%
  mortality at 100 µg/mL: 97.3 ± 3.2%
  mortality at 150 µg/mL: 100%
[4]; with perforated tubing, test insect bag at bottom layer
  Insect Survivors: 0
[4]; with perforated tubing, test insect bag at middle layer
  Insect Survivors: 0
[4]; with perforated tubing, test insect bag at top layer
  Insect Survivors: 0
[4]; without perforated tubing, test insect bag at bottom layer
  Insect Survivors: 22.33
[4]; without perforated tubing, test insect bag at middle layer
  Insect Survivors: 0.33
[4]; without perforated tubing, test insect bag at top layer
  Insect Survivors: 0
[4]; Sitophilus oryzae, with perforated tubing, bottom layer
  mortality at 200 µg/mL: 100%
[4]; Sitophilus oryzae, with perforated tubing, middle layer
  mortality at 200 µg/mL: 100%
[4]; Sitophilus oryzae, with perforated tubing, top layer
  mortality at 200 µg/mL: 100%
[4]; Sitophilus oryzae, without perforated tubing, bottom layer
  mortality at 200 µg/mL: 95.3%
[4]; Sitophilus oryzae, without perforated tubing, middle layer
  mortality at 200 µg/mL: 99.9%
[4]; Sitophilus oryzae, without perforated tubing, top layer
  mortality at 200 µg/mL: 100%
[4]; Sitophilus oryzae, all stages, preferred exposure period 72 hours
  dosage for 100% kill of all stages: 200 mg per litre of space
[5]; bottom layer
  mortality at 200 µg/mL: 0%
[5]; middle layer
  mortality at 200 µg/mL: 100%
[5]; top layer
  mortality at 200 µg/mL: 99.4%
[5]; [10]
  Insect Survivors: 39.00
[5]; [11]
  Insect Survivors: 0
[5]; test insect bag at top layer
  Insect Survivors: 0.33
[6]; [10]
  Insect Survivors: 0
[6]; [11]
  Insect Survivors: 0
[6]; test insect bag at top layer
  Insect Survivors: 0
[6]; Tribolium castaneum, bottom layer
  mortality at 200 µg/mL: 100%
[6]; Tribolium castaneum, middle layer
  mortality at 200 µg/mL: 100%
[6]; Tribolium castaneum, top layer
  mortality at 200 µg/mL: 100%
[6]; Tribolium castaneum, all stages, preferred exposure period 72 hours
  dosage for 100% kill of all stages: 200 mg per litre of space
[7]; 100 mg/liter
  % mortality based on survivors in controls: (100) %
  No. of survivors from 50 g lots of mixed-age cultures following treatment: 0
[7]; 150 mg/liter
  % mortality based on survivors in controls: (100) %
  No. of survivors from 50 g lots of mixed-age cultures following treatment: 0
[7]; 200 mg/liter
  % mortality based on survivors in controls: (100) %
  No. of survivors from 50 g lots of mixed-age cultures following treatment: 0
[7]; 400 mg/liter
  % mortality based on survivors in controls: (100) %
  No. of survivors from 50 g lots of mixed-age cultures following treatment: 0
[7]; 600 mg/liter
  % mortality based on survivors in controls: (100) %
  No. of survivors from 50 g lots of mixed-age cultures following treatment: 0
[7]; 800 mg/liter
  % mortality based on survivors in controls: (100) %
  No. of survivors from 50 g lots of mixed-age cultures following treatment: 0
[8]; exposure period 24 hour
  % mortality based on survivors in controls: (100) %
  No. of survivors from 50 g lots of mixed-age cultures following treatment: 0
[8]; exposure period 48 hour
  % mortality based on survivors in controls: (100) %
  No. of survivors from 50 g lots of mixed-age cultures following treatment: 0
[8]; exposure period 72 hour
  % mortality based on survivors in controls: (100) %
  No. of survivors from 50 g lots of mixed-age cultures following treatment: 0
[9]; exposure period 24 hour
  % mortality based on survivors in controls: (100) %
  No. of survivors from 50 g lots of mixed-age cultures following treatment: 0
[9]; exposure period 48 hour
  % mortality based on survivors in controls: (100) %
  No. of survivors from 50 g lots of mixed-age cultures following treatment: 0
[9]; exposure period 72 hour
  % mortality based on survivors in controls: (100) %
  No. of survivors from 50 g lots of mixed-age cultures following treatment: 0
